In PubChem BioAssay (NCI) one finds GI50 and TGI data, which are given here for 10 compounds.

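Exposure lasted 48 hours, with cells grown in 96-well plates and compounds tested at five concentrations. Abbreviation: GI50, concentration required for 50% inhibition of growth. Definition used: TGI = concentration required for complete inhibition of growth.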

Holding throughout (test): NCI anticancer screen, dose series, 48 h
Assay [1] deals with COLO 205 colon.
In assay [2] the test system is HCC-2998 colon.
In assay [3] the test system is HCT-15 colon.
Assay [4] has as its system IGROV1 ovarian.
Assay [5] deals with K-562 leukemia.
The subject of assay [6] is KM12 colon.
Assay [7] relates to MOLT-4 leukemia.
For assay [8], the system named is SF-295 CNS.
The subject of assay [9] is SF-539 CNS.
In assay [10] the test system is UO-31 renal.

For `C[C@H]1CCC/C=C/C2CC(OC(=O)CN(C)C)CC2C(OC(=O)CN(C)C)/C=C/C(=O)O1` (stereo not given in full), the GI50 in assay [1] is 0.246 µM; in [2] it was 0.215 µM; in [3] it was 0.272 µM; in assay [4], 1.71 µM; in assay [5] it was 3.29 µM; in assay [6], 0.198 µM. Besides, the GI50 in assay [7] was 0.357 µM; in assay [8], 1.11 µM; in assay [9], 0.531 µM; in assay [10], 0.142 µM. For the same compound, the TGI in assay [1] was 3.6 µM; in assay [2], 0.537 µM; in assay [3], > 32.4 µM; in assay [4] it was 34.4 µM; in [5], > 100 µM; in assay [6] it was 1.31 µM. For the same compound, the TGI in assay [7] was 5.44 µM; in assay [8], 37.2 µM; in assay [9], > 100 µM; in [10], 0.765 µM.
Take `O=C(CCc1nc(=S)[nH][nH]1)Nc1cc(Cl)ccc1Cl`: the TGI in assay [1], in assay [2], in assay [3], in assay [4], in assay [5] and in [6] was > 100 µM each time. The TGI in [7], in assay [8], in assay [9] and in assay [10] was > 100 µM in each case.
For the compound `Cc1nnc(C[C@@H]2C=C(c3ccc(Cl)cc3)c3ccccc3-n3c(C)nnc32)o1`, the GI50 is 0.296 µM in [1]; 1.33 µM in [2]; 0.461 µM in [3]; 2.3 µM in assay [4]; 0.809 µM in assay [5]; 6.25 µM in assay [6]. Further, the GI50 in assay [7] was 8.35 µM; in [8], 1.71 µM; in [9] it was 1.16 µM; in [10], 0.0739 µM. The TGI in assay [1] was 24.1 µM; in assay [2], 18.6 µM; in assay [3], 40.2 µM; in assay [4] it was > 100 µM; in [5] it was > 100 µM; in [6], > 100 µM. Also, the TGI is > 100 µM in assay [7], 43 µM in assay [8], 54.3 µM in assay [9] and 44.4 µM in assay [10].
For `NC1=NN(c2ccccc2)C(=O)C1C(=O)C(=O)Nc1ccc(Cl)cc1` (stereo not given), the TGI in assay [1], in assay [2], in [3], in [4], in assay [5] and in assay [6] was > 100 µM in each case. Further, the TGI in [7], in [8], in assay [9] and in assay [10] was > 100 µM each time.
Turning to `Cc1cc(S(=O)(=O)/N=C(\N)Nc2cccc(O)c2)c(SCc2ccccc2)cc1Cl`, the GI50 was 28.8 µM in [1]; 32.6 µM in assay [2]; 18.6 µM in assay [3]; 17.5 µM in assay [4]; 8.28 µM in assay [5]; 15.6 µM in assay [6]. Besides, the GI50 is 9.06 µM in [7], 16.7 µM in assay [8], 18 µM in assay [9] and 10.8 µM in [10]. Also, the TGI in assay [1] was > 100 µM; in assay [2], 65.1 µM; in assay [3], 48 µM; in assay [4] it was 64.8 µM; in assay [5] it was > 100 µM; in assay [6] it was 54.4 µM. Also, the TGI in assay [7] was > 100 µM; in [8] it was 51.2 µM; in [9], 38.8 µM; in assay [10] it was 27.6 µM.
For `O=S(=O)(C1=CC(S(=O)(=O)c2ccccc2)COC1)c1ccccc1` (stereo not given), the TGI in assay [1], in assay [2], in assay [3], in [4], in assay [5] and in [6] was > 100 µM throughout. The TGI in assay [7], in assay [8], in [9] and in assay [10] was > 100 µM in each case.
For `O=C(NCCCCCCCCCCCCNC(=O)c1cnc2ccccc2n1)c1cnc2ccccc2n1`, the TGI in assay [1], in assay [2], in [3], in [4], in assay [5] and in assay [6] was > 100 µM each time. Besides, the TGI in assay [7] was > 100 µM; in [8] it was > 100 µM; in assay [9], 36.8 µM; in assay [10], 86.1 µM.
Turning to `COc1ccc(-c2nn(-c3cccc(Cl)c3)cc2/C=C2\NC(=S)N(c3ccc(Cl)cc3)C2=O)cc1`, the GI50 in [1] is 5.59 µM; in [2] it was 7.93 µM; in assay [3], 7.94 µM; in [4], 4.99 µM; in [5], 3.12 µM; in assay [6], 10.1 µM. The GI50 is 4.47 µM in assay [7], 4.63 µM in [8], 8.22 µM in [9] and 8.53 µM in [10]. Besides, the TGI in assay [1] was 11 µM; in assay [2], > 25 µM; in assay [3] it was > 25 µM; in assay [4] it was 10.1 µM; in assay [5], 7.92 µM; in [6], > 25 µM. For the same compound, the TGI in assay [7] was 10.7 µM; in assay [8] it was 12 µM; in assay [9], > 25 µM; in assay [10], > 25 µM.
As for `CC(=O)Nc1ccccc1-c1nc2ccccc2nc1-c1ccccc1`, the TGI in assay [1], in assay [2], in assay [3], in [4], in [5] and in assay [6] was > 100 µM in each case. Further, the TGI in [7], in [8], in assay [9] and in assay [10] was > 100 µM each time.
In the case of `c1ccc2c(c1)[nH]c1cnc3c4ncccc4[nH]c3c12`, the TGI in assay [1], in assay [2], in [3], in assay [4], in [5] and in assay [6] was > 100 µM in each case. In addition, the TGI in assay [7] is 97.6 µM; in [8], > 100 µM; in assay [9], > 100 µM; in assay [10] it was > 100 µM.
